Assays:
Assay in all cases: HLA class I binding assay, purified HLA, inhibition of 125I-labelled probe peptide
[1] = biological target: HLA-A*6802 (Homo sapiens, UniProt P04439, A269V/D140Y/D185E/E176V/E277Q/E87N/F33Y/G231S/I121R/I166T/I218V/L180W/L300P/L318F/N151K/P208A/P217A/Q86R/R138H/R169H/S129P/T345S/V36M); settings: A2 supermotif cross-reactive binding data; read-out: A*6802 nM
[2] = biological target: HLA-A*0202 (Homo sapiens, UniProt P04439, D140Y/D185E/D98H/E176V/E277Q/G131W/G231S/I119L/I121R/I166T/I218V/L180W/L300P/L318F/N151K/N90K/P208A/P217A/Q67R/Q86G/Q94H/R138H/R169H/T345S); settings: A2 supermotif cross-reactive binding data
[3] = biological target: HLA-A*0201 (Homo sapiens, UniProt P04439, D140Y/D185E/D98H/E176V/E277Q/G131W/G231S/I119V/I121R/I166T/I218V/L300P/L318F/N151K/N90K/P208A/P217A/Q86G/Q94H/R138H/R169H/T345S); settings: A*[…], A2 supermotif cross-reactive binding data
[4] = biological target: HLA-A*0206 (Homo sapiens, UniProt P04439, D140Y/D185E/D98H/E176V/E277Q/F33Y/G131W/G231S/I119V/I121R/I166T/I218V/L300P/L318F/N151K/N90K/P208A/P217A/Q86G/Q94H/R138H/R169H/T345S); settings: A*[…], A2 supermotif cross-reactive binding data
[5] = biological target: HLA-A*0203 (Homo sapiens, UniProt P04439, A173T/D140Y/D185E/D98H/E277Q/G131W/G231S/I119V/I121R/I166T/I218V/L180W/L300P/L318F/N151K/N90K/P208A/P217A/Q86G/Q94H/R138H/R169H/T345S); settings: A*[…], A2 supermotif cross-reactive binding data

Compound	IC50 [1] [µM]	IC50 [2] [µM]	IC50 [3] [µM]	IC50 [4] [µM]	IC50 [5] [µM]
CC[C@H](C)[C@H](NC(=O)[C@H](Cc1c[nH]c2ccccc12)NC(=O)[C@@H](NC(=O)[C@@H](NC(=O)[C@H](CO)NC(=O)[C@H](CC(C)C)NC(=O)[C@@H](N)[C@@H](C)O)C(C)C)[C@@H](C)O)C(=O)NCC(=O)N[C@H](C(=O)O)C(C)C [Peptide 60.0217]	0.229	0.0049	0.026	0.712	0.04
CSCC[C@H](NC(=O)[C@H](Cc1ccccc1)NC(=O)[C@H](CCCCN)NC(=O)[C@@H](NC(=O)[C@@H](NC(=O)[C@@H](N)CCCCN)C(C)C)[C@@H](C)O)C(=O)N[C@@H](CC(C)C)C(=O)N[C@@H](CS)C(=O)N[C@H](C(=O)O)C(C)C [Peptide 60.0220]	> 10	0.518	0.069	0.128	0.053
CC[C@H](C)[C@H](NC(=O)[C@H](CO)NC(=O)[C@@H](NC(=O)CN)C(C)C)C(=O)N[C@@H](Cc1c[nH]c2ccccc12)C(=O)N[C@@H](CC(N)=O)C(=O)N1CCC[C@H]1C(=O)N[C@H](C(=O)N[C@@H](CC(C)C)C(=O)N[C@H](C(=O)O)C(C)C)[C@@H](C)CC [Peptide 63.0041]	2.29	0.094	0.25	0.451	–
CC[C@H](C)[C@H](NC(=O)[C@@H]1CCCN1C(=O)[C@H](CCC(N)=O)NC(=O)[C@H](Cc1c[nH]c2ccccc12)NC(=O)[C@H](CC(C)C)NC(=O)[C@H](CC(C)C)NC(=O)[C@H](CC(C)C)NC(=O)[C@@H]1CCCN1)C(=O)N1CCC[C@H]1C(=O)N[C@H](C(=O)O)C(C)C [Peptide 63.0042]	–	0.047	0.238	0.336	0.019
CC(C)C[C@H](NC(=O)[C@H](CO)NC(=O)[C@H](CC(C)C)NC(=O)[C@H](CO)NC(=O)[C@H](C)NC(=O)[C@H](C)NC(=O)[C@H](CCCNC(=N)N)NC(=O)[C@H](C)NC(=O)[C@H](CC(C)C)NC(=O)[C@H](CC(C)C)NC(=O)[C@@H](N)CC(C)C)C(=O)O [Peptide 63.0136]	–	0.0031	0.0081	0.08	0.0053
CC(C)C[C@H](NC(=O)[C@H](Cc1ccccc1)NC(=O)[C@@H](NC(=O)[C@@H](N)C(C)C)C(C)C)C(=O)N[C@H](C(=O)N[C@@H](CC(C)C)C(=O)N[C@@H](CO)C(=O)N[C@H](C(=O)N[C@H](C(=O)N[C@@H](Cc1c[nH]c2ccccc12)C(=O)N[C@H](C(=O)O)C(C)C)[C@@H](C)O)C(C)C)[C@@H](C)O [Peptide 63.0185]	> 10	0.088	0.089	0.336	0.071
CC[C@H](C)[C@H](NC(=O)[C@H](Cc1ccccc1)NC(=O)[C@H](C)NC(=O)[C@H](CCCNC(=N)N)NC(=O)[C@H](CCC(=O)O)NC(=O)[C@H](CC(C)C)NC(=O)[C@H](Cc1ccccc1)NC(=O)[C@H](CCSC)NC(=O)[C@H](CC(C)C)NC(=O)[C@@H](N)CCC(N)=O)C(=O)O [Peptide 1126.16]	0.03	0.036	0.098	> 10	0.091
CC(C)C[C@H](NC(=O)[C@H](CC(=O)O)NC(=O)CNC(=O)[C@H](CCC(=O)O)NC(=O)[C@@H]1CCCN1C(=O)[C@H](CC(C)C)NC(=O)CN)C(=O)N[C@H](C(=O)N[C@@H](Cc1ccc(O)cc1)C(=O)N[C@H](C(=O)O)C(C)C)C(C)C [Peptide 1389.22]	0.964	0.002	0.042	0.112	–
CC(C)C[C@H](NC(=O)[C@H](C)N)C(=O)N[C@@H](CO)C(=O)N[C@H](C(=O)NCC(=O)N[C@@H](CS)C(=O)N[C@H](C(=O)NCC(=O)N[C@H](C(=O)O)C(C)C)[C@@H](C)O)C(C)C [Peptide 1418.15]	> 10	0.017	0.024	0.264	0.0091
CSCC[C@H](NC(=O)[C@H](CC(=O)O)NC(=O)[C@H](CC(N)=O)NC(=O)[C@H](CO)NC(=O)[C@H](CC(C)C)NC(=O)[C@H](CC(C)C)NC(=O)[C@@H](N)Cc1c[nH]cn1)C(=O)N[C@@H](CS)C(=O)N[C@H](C(=O)O)C(C)C [Peptide 1418.20]	> 10	0.102	0.119	0.176	0.278
CSCC[C@H](NC(=O)[C@H](Cc1ccccc1)NC(=O)[C@H](CCC(=O)O)NC(=O)[C@@H](NC(=O)[C@@H](NC(=O)[C@@H](N)CCCCN)C(C)C)[C@@H](C)O)C(=O)N[C@@H](CC(C)C)C(=O)N[C@@H](CS)C(=O)N[C@H](C(=O)O)C(C)C [Peptide 1418.21]	6.67	0.027	0.053	0.034	0.031
CC[C@H](C)[C@H](NC(=O)[C@H](CC(=O)O)NC(=O)[C@H](Cc1ccccc1)NC(=O)[C@@H](NC(=O)[C@H](C)N)[C@@H](C)O)C(=O)N[C@@H](CCC(=O)O)C(=O)N[C@@H](CO)C(=O)N[C@@H](CCCCN)C(=O)N[C@H](C(=O)O)C(C)C [Peptide 1418.30]	0.258	0.027	0.238	0.082	0.044
CC(C)C[C@H](NC(=O)[C@H](CO)NC(=O)[C@@H](NC(=O)[C@H](CS)NC(=O)[C@H](CCC(N)=O)NC(=O)[C@H](CC(C)C)NC(=O)[C@@H](N)CO)C(C)C)C(=O)N[C@@H](Cc1c[nH]cn1)C(=O)N[C@@H](CC(C)C)C(=O)N[C@H](C(=O)O)C(C)C [Peptide 1418.52]	0.205	0.0063	0.013	0.0052	0.0028
CSCC[C@H](NC(=O)[C@H](CC(=O)O)NC(=O)[C@H](CC(N)=O)NC(=O)[C@H](CO)NC(=O)[C@H](CC(C)C)NC(=O)[C@H](CC(C)C)NC(=O)[C@@H](N)Cc1c[nH]cn1)C(=O)N[C@@H](CS)C(=O)N[C@@H](C)C(=O)N[C@@H](CCCNC(=N)N)C(=O)N[C@H](C(=O)O)C(C)C [Peptide 1418.67]	0.86	0.0013	0.026	0.037	0.0053
CC[C@H](C)[C@H](NC(=O)[C@H](Cc1c[nH]c2ccccc12)NC(=O)[C@@H](NC(=O)[C@@H](NC(=O)[C@H](CO)NC(=O)[C@H](CC(C)C)NC(=O)[C@@H](NC(=O)[C@H](CC(C)C)NC(=O)[C@H](Cc1ccccc1)NC(=O)[C@@H](NC(=O)[C@@H](N)C(C)C)C(C)C)[C@@H](C)O)C(C)C)[C@@H](C)O)C(=O)O [Peptide 1419.25]	> 10	0.159	–	2.85	0.063
CC(C)C[C@H](NC(=O)[C@@H](N)Cc1ccccc1)C(=O)N[C@@H](CC(N)=O)C(=O)N[C@@H](CCC(=O)O)C(=O)N[C@@H](CO)C(=O)N[C@@H](Cc1ccc(O)cc1)C(=O)N[C@@H](CCCCN)C(=O)N[C@@H](Cc1c[nH]cn1)C(=O)N[C@@H](CCC(=O)O)C(=O)N[C@@H](CCC(N)=O)C(=O)N[C@H](C(=O)O)C(C)C [Peptide 1419.55]	6.15	0.0014	–	0.381	0.0056
CC(C)C[C@H](NC(=O)[C@H](CC(C)C)NC(=O)[C@H](Cc1c[nH]cn1)NC(=O)[C@H](CC(C)C)NC(=O)[C@H](CO)NC(=O)[C@@H](NC(=O)[C@H](CS)NC(=O)[C@H](CCC(N)=O)NC(=O)[C@H](CC(C)C)NC(=O)[C@@H](N)CO)C(C)C)C(=O)O [Peptide 1419.66]	5	0.0049	0.263	0.446	0.071
H-LLSNDMCARV-OH [Peptide 1418.53]	1.7	0.0007	0.0053	0.01	–
H-SLHLLSNDMCV-OH [Peptide 1418.66]	2.16	0.0008	0.0086	2.31	0.01
